# Measured values published in patent US20260092071A1, “COMPOUNDS AND COMPOSITIONS AS SMARCA2/4 DEGRADERS AND USES THEREOF” (REGENTS OF THE UNIVERSITY OF MICHIGAN, priority 2022, published 2026).
# Where two headings read alike, the source gives them in different places.
# Experiments:
# [1] = molecular target: SMARCA2 (Homo sapiens, UniProt P51531); assay: HiBit assay in engineered HT1080 CRISPR knock-in cell, 6 hrs (B series), SMARCA2; format: cell-based; conditions: 6 hrs incubation; for DC50 / SMARC A2 HT1080 HiBit Dmax (%): HT1080 CRISPR knock-in cells; for DC50: read-out: SMARC A2 HT1080 HiBit DC50; for Dmax: HT-1080, HT1080 CRISPR knock-in cells, read-out: SMARC A2 HT1080 HiBit Dmax (%)
# SMARCA2, sequence (P51531 whole entry): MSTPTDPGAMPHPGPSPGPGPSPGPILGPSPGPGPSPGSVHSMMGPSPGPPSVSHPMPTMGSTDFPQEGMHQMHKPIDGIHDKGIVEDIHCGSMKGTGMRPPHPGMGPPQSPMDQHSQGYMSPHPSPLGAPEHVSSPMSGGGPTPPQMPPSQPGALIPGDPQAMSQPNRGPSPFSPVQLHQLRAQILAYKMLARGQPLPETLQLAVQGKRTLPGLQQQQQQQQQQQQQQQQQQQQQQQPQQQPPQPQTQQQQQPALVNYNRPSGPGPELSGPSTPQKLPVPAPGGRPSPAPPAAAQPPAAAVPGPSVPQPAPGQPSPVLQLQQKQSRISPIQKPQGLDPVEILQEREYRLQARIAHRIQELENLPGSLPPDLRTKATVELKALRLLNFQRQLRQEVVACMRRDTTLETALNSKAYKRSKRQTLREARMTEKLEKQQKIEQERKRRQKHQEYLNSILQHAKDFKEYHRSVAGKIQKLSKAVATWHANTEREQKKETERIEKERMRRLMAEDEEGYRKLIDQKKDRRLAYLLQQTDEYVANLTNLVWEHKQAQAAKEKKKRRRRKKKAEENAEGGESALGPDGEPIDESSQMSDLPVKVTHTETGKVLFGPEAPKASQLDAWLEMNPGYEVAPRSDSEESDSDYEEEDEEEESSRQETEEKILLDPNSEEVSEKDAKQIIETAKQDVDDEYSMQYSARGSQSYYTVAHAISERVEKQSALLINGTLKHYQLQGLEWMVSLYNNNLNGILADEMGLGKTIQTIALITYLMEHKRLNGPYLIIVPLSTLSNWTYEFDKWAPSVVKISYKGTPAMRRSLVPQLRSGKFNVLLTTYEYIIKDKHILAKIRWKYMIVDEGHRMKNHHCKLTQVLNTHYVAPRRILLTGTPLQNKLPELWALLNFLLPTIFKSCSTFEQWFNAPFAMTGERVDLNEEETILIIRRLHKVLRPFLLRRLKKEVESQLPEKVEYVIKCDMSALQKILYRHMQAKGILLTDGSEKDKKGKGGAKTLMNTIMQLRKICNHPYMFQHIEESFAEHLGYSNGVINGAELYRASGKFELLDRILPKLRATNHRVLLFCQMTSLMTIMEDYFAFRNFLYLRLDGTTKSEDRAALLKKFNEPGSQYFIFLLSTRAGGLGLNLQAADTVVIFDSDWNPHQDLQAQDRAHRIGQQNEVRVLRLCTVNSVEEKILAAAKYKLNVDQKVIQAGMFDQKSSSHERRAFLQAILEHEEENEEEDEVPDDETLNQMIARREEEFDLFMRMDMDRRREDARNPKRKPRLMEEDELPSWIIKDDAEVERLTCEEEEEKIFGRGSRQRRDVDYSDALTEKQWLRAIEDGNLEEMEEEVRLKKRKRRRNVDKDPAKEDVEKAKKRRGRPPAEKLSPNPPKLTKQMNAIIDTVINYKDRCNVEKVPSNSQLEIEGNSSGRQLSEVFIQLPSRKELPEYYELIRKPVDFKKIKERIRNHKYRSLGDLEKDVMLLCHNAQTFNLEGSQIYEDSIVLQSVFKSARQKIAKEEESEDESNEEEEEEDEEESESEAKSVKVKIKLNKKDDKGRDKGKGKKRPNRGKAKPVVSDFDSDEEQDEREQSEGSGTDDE
# Method in brief: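 Using a 6 hr treatment window at 37° C and 5% CO2, tagged HT1080 knock-in cells were exposed to test compounds with DMSO vehicle held at 0.1%. Signal came from lytic LgBiT/substrate reagent added after incubation, with control wells lacking LgBiT, and was read as luminescence.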
# [2] = molecular target: SMARCA4 (Homo sapiens, UniProt P51532); assay: HiBit assay in engineered HT1080 CRISPR knock-in cell, 6 hrs (B series), SMARCA4; format: cell-based; conditions: for DC50 / SMARC A4 HT1080 HiBit Dmax(%): HT1080 CRISPR knock-in cells; for DC50: read-out: SMARC A4 HT1080 HiBit DC50
# SMARCA4, sequence (P51532 whole entry): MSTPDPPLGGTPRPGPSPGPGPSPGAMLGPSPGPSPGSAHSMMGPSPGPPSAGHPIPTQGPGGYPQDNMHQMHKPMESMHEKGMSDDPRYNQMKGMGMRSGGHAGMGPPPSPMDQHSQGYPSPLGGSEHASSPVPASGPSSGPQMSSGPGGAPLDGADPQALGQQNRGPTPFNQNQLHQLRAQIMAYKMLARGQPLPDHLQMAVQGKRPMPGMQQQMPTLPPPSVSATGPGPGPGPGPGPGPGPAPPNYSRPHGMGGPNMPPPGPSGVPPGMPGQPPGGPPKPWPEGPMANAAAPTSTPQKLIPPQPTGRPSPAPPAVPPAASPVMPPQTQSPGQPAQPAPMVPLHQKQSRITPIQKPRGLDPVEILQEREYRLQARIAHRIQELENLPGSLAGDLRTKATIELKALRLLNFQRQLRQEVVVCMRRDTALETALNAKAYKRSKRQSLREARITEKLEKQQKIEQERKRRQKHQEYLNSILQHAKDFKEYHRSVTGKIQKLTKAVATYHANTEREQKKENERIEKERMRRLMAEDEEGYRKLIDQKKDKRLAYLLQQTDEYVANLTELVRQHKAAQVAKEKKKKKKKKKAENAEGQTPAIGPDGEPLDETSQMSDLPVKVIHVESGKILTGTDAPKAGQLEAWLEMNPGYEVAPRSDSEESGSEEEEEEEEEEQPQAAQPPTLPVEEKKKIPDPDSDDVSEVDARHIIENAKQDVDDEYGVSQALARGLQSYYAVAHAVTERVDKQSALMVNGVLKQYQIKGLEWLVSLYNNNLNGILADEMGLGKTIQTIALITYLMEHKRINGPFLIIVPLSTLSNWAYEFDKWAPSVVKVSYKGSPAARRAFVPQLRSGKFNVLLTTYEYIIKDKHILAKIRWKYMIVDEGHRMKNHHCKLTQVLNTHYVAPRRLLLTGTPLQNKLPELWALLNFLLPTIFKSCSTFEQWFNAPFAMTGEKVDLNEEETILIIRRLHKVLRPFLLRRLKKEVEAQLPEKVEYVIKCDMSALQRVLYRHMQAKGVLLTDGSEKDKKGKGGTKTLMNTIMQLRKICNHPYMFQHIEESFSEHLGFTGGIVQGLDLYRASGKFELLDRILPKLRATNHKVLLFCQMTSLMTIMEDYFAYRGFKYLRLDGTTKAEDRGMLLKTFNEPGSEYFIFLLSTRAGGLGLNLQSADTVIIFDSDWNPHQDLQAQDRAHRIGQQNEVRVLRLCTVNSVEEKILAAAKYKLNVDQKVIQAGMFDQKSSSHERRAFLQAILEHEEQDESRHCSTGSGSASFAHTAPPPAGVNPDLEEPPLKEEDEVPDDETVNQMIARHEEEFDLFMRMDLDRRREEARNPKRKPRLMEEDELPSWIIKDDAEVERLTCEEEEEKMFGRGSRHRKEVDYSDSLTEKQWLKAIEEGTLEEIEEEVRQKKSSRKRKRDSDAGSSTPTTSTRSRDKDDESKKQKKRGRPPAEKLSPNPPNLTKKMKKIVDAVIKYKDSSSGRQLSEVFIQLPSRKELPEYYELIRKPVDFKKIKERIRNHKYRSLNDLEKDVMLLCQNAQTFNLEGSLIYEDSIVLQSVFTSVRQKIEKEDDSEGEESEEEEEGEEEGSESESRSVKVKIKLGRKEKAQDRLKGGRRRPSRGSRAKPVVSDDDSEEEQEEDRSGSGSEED
# Method in brief: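 Engineered HT1080 knock-in cells, 2000 cells/well, 6 hrs compound exposure, 37° C/5% CO2, 0.1% DMSO final. Lytic detection: LgBiT 1:100 plus HiBiT substrate 1:50 in lytic buffer, 10 min shake at RT, luminescence read.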
# [3] = HT-1080, HT1080 CRISPR knock-in cells, 6 hrs incubation, read-out: SMARC A4 HT1080 HiBit Dmax(%)
Structure (SMILES),DC50 [1],Dmax [1],DC50 ([2]; 6 hrs incubation),"Dmax ([2]; HT-1080, read-out: SMARC A4 HT1080 HiBit Dmax(%), HT1080 CRISPR knock-in cells, 6 hrs incubation)","Dmax [2, 3]",SMARC A2 HT1080 HiBit Dmax (%) [1],SMARC A4 HT1080 HiBit Dmax(%) ([2]; 6 hrs incubation)
"Cc1ncsc1-c1ccc([C@H](CN2CCOCC2)NC(=O)[C@@H]2C[C@@H](O)CN2C(=O)[C@@H](c2cc(O[C@H]3CC[C@H](CN4CCC(c5ccc6c(c5)-n5c(nc(=O)c7c(Cl)cccc75)C6(C)C)CC4)CC3)no2)C(C)C)cc1 [Compound B157, (2S,4R)-1-((R)-2-(3-(((1r,4R)-4-((4-(4-chloro-7,7-dimethyl-5-oxo-5,7-dihydroindolo[1,2-a]quinazolin-10-yl)piperidin-1-yl)methyl)cyclohexyl)oxy)isoxazol-5-yl)-3-methylbutanoyl)-4-hydroxy-N-((R)-1-(4-(4-methylthiazol-5-yl)phenyl)-2-morpholinoethyl)pyrrolidine-2-carboxamide]",< 0.1 µM,> 90%,< 0.1 µM,> 90%,–,–,–
"Cc1ncsc1-c1ccc([C@H](CN2CCOCC2)NC(=O)[C@@H]2C[C@@H](O)CN2C(=O)[C@@H](c2cc(O[C@H]3CC[C@H](CN4CCC(c5ccc6c(c5)-n5c(nc(=O)c7c(Cl)cccc75)C65CCCCC5)CC4)CC3)no2)C(C)C)cc1 [Compound B158, (2S,4R)-1-((R)-2-(3-(((11,4R)-4-((4-(4′-chloro-5′-oxo-5′H-spiro[cyclohexane-1,7′-indolo[1,2-a]quinazolin]-10′-yl)piperidin-1-yl)methyl)cyclohexyl)oxy)isoxazol-5-yl)-3-methylbutanoyl)-4-hydroxy-N-((R)-1-(4-(4-methylthiazol-5-yl)phenyl)-2-morpholinoethyl)pyrrolidine-2-carboxamide]",< 0.1 µM,> 90%,< 0.1 µM,–,> 90%,–,–
"Cc1ncsc1-c1ccc([C@H](C)NC(=O)[C@@H]2C[C@@H](O)CN2C(=O)[C@H](C(C)C)n2cc(C3CCC(c4cccc5c4C(C)(C)c4nc(=O)c6c(Cl)cccc6n4-5)CC3)nn2)cc1 (stereo partly drawn) [Compound B161, (2S,4R)-1-((S)-2-(4-(4-(4-chloro-7,7-dimethyl-5-oxo-5,7-dihydroindolo[1,2-a]quinazolin-8-yl)cyclohexyl)-1H-1,2,3-triazol-1-yl)-3-methylbutanoyl)-4-hydroxy-N-((S)-1-(4-(4-methylthiazol-5-yl)phenyl)ethyl)pyrrolidine-2-carboxamide]",< 0.1 µM,–,< 0.1 µM,–,–,A (A (>90% degradation)),C (C (50-69% degradation))
"Cc1ncsc1-c1ccc([C@H](C)NC(=O)[C@@H]2C[C@@H](O)CN2C(=O)[C@H](C(C)C)n2cc(C3CCC(c4cccc5c4C(C)(C)c4nc(=O)c6c(Cl)cccc6n4-5)CC3)nn2)cc1 (stereo partly drawn) [Compound B162, (2S,4R)-1-((S)-2-(4-(4-(4-chloro-7,7-dimethyl-5-oxo-5,7-dihydroindolo[1,2-a]quinazolin-8-yl)cyclohexyl)-1H-1,2,3-triazol-1-yl)-3-methylbutanoyl)-4-hydroxy-N-((S)-1-(4-(4-methylthiazol-5-yl)phenyl)ethyl)pyrrolidine-2-carboxamide]",< 0.1 µM,–,< 0.1 µM,–,–,A (A (>90% degradation)),C (C (50-69% degradation))
"Cc1ncsc1-c1ccc(C(CN2CCOCC2)NC(=O)[C@@H]2C[C@@H](O)CN2C(=O)[C@@H](c2cc(O[C@H]3CC[C@H](CN4CCN(c5ccc6c(c5)-n5c(nc(=O)c7c(Cl)cccc75)C6(C)C)CC4)CC3)no2)C(C)C)cc1 (stereo partly drawn) [Compound B163, (2S,4R)-1-((R)-2-(3-(((11,4R)-4-((4-(4-chloro-7,7-dimethyl-5-oxo-5,7-dihydroindolo[1,2-a]quinazolin-10-yl)piperazin-1-yl)methyl)cyclohexyl)oxy)isoxazol-5-yl)-3-methylbutanoyl)-4-hydroxy-N-((R)-1-(4-(4-methylthiazol-5-yl)phenyl)-2-morpholinoethyl)pyrrolidine-2-carboxamide]",< 0.1 µM,> 90%,< 0.1 µM,–,> 90%,–,–
"Cc1nc(C)c(-c2ccc([C@H](C)NC(=O)[C@@H]3C[C@@H](O)CN3C(=O)[C@@H](n3cc([C@H]4CC[C@H](CN5CCC(c6ccc7c(c6)-n6c(nc(=O)c8c(Cl)cccc86)C7(C)C)CC5)CC4)nn3)C(C)(C)C)cc2)s1 [Compound B164, (2S,4R)-1-((S)-2-(4-((1r,4S)-4-((4-(4-chloro-7,7-dimethyl-5-oxo-5,7-dihydroindolo[1,2-a]quinazolin-10-yl)piperidin-1-yl)methyl)cyclohexyl)-1H-1,2,3-triazol-1-yl)-3,3-dimethylbutanoyl)-N-((S)-1-(4-(2,4-dimethylthiazol-5-yl)phenyl)ethyl)-4-hydroxypyrrolidine-2-carboxamide]",< 0.1 µM,> 90%,< 0.1 µM,–,70 to 90%,–,–
"Cc1cc(C(C(=O)N2C[C@H](O)C[C@H]2C(=O)N[C@@H](CCN2CCC(c3cccc4c3C(C)(C)c3nc(=O)c5c(Cl)cccc5n3-4)CC2)c2ccc(-c3scnc3C)cc2)C(C)C)on1 (stereo partly drawn) [Compound B165, (2S,4R)-N-((S)-3-(4-(4-chloro-7,7-dimethyl-5-oxo-5,7-dihydroindolo[1,2-a]quinazolin-8-yl)piperidin-1-yl)-1-(4-(4-methylthiazol-5-yl)phenyl)propyl)-4-hydroxy-1-(3-methyl-2-(3-methylisoxazol-5-yl)butanoyl)pyrrolidine-2-carboxamide]",0.1 to 0.5 µM,–,0.1 to 0.5 µM,–,–,C (C (50-69% degradation)),C (C (50-69% degradation))
"Cc1cc(C(C(=O)N2C[C@H](O)C[C@H]2C(=O)N[C@@H](CCN2CCC(c3cccc4c3C(C)(C)c3nc(=O)c5c(Cl)cccc5n3-4)CC2)c2ccc(-c3scnc3C)cc2)C(C)C)on1 (stereo partly drawn) [Compound B166, (2S,4R)-N-((S)-3-(4-(4-chloro-7,7-dimethyl-5-oxo-5,7-dihydroindolo[1,2-a]quinazolin-8-yl)piperidin-1-yl)-1-(4-(4-methylthiazol-5-yl)phenyl)propyl)-4-hydroxy-1-(3-methyl-2-(3-methylisoxazol-5-yl)butanoyl)pyrrolidine-2-carboxamide]",0.1 to 0.5 µM,–,0.1 to 0.5 µM,–,–,B (B (70-90% degradation)),B (B (70-90% degradation))
"Cc1nc(C)c(-c2ccc([C@H](C)NC(=O)[C@@H]3C[C@@H](O)CN3C(=O)[C@@H](c3cc(N4CCC(c5cccc6c5C(C)(C)c5nc(=O)c7c(Cl)cccc7n5-6)CC4)no3)C(C)C)cc2)s1 [Compound B167, (2S,4R)-1-(2-(3-(4-(4-chloro-7,7-dimethyl-5-oxo-5,7-dihydroindolo[1,2-a]quinazolin-8-yl)piperidin-1-yl)isoxazol-5-yl)-3-methylbutanoyl)-N-((S)-1-(4-(2,4-dimethylthiazol-5-yl)phenyl)ethyl)-4-hydroxypyrrolidine-2-carboxamide]",< 0.1 µM,70 to 90%,0.1 to 0.5 µM,–,< 50%,–,–
"Cc1nc(C)c(-c2ccc([C@H](C)NC(=O)[C@@H]3C[C@@H](O)CN3C(=O)[C@@H](n3cc([C@H]4CC[C@H](CN5CCN(c6ccc7c(c6)-n6c(nc(=O)c8c(Cl)cccc86)C76CCCCC6)CC5)CC4)nn3)C(C)(C)C)cc2)s1 [Compound B168, (2S,4R)-1-((S)-2-(4-((1,4S)-4-((4-(4′-chloro-5′-oxo-5′H-spiro[cyclohexane-1,7′-indolo[1,2-a]quinazolin]-10′-yl)piperazin-1-yl)methyl)cyclohexyl)-1H-1,2,3-triazol-1-yl)-3,3-dimethylbutanoyl)-N-((S)-1-(4-(2,4-dimethylthiazol-5-yl)phenyl)ethyl)-4-hydroxypyrrolidine-2-carboxamide]",< 0.1 µM,> 90%,0.1 to 0.5 µM,–,70 to 90%,–,–
Cc1ncsc1-c1ccc([C@H](C)NC(=O)[C@@H]2C[C@@H](O)CN2C(=O)[C@@H](n2cc(C34CC(C(=O)N5CCC(c6ccc7c(c6)-n6c(nc(=O)c8c(Cl)cccc86)C76CCCCC6)CC5)(C3)C4)nn2)C(C)(C)C)cc1 [Compound B169],< 0.1 µM,70 to 90%,< 0.1 µM,–,50 to 69%,–,–
